Source: patent US20250129096A1, “ANNULATED 2-AMINO-3-CYANO THIOPHENES AND DERIVATIVES FOR THE TREATMENT OF CANCER” (Boehringer Ingelheim Int'l GmbH Corp., priority 2021, published 2025)
Like-named read-outs stand apart in the source and are kept apart here.

Key:
KRAS G12D Ba/F3 cells = KRAS G12D Ba/F3 cells (Homo sapiens, UniProt P01116, G12D, cells depend on it); assay: Ba/F3 proliferation assay, KRAS G12D; format: cell-based; details: 72 h, AlamarBlue; read-out: KRAS G12D Ba/F3 IC50
Procedure: (§1) To generate KRASG12-dependent Ba/F3 models, Ba/F3 cells are transduced with retroviruses containing vectors that harbor KRASG12 isoforms. Platinum-E cells (Cell Biolabs) are used for retrovirus packaging. Retrovirus is added to Ba/F3 cells. To ensure infection, 4 μg/mL polybrene is added and cells are spinfected. […] Cells with an infection efficiency of 10% to 20% are further cultivated and puromycin selection with 1 μg/mL is initiated. As a control, parental Ba/F3 cells are used to show selection status. Selection is considered successful when parental Ba/F3 cells cultures died. To evaluate the transforming potential of KRASG12 mutations, the growth medium is no longer supplemented with IL-3. Ba/F3 cells harboring the empty vector are used as a control. Approximately ten days before conducting the experiments, puromycin is left out. […] All treatments are performed in technical duplicates. […] AlamarBlue™(ThermoFisher), a viability stain, is added and fluorescence measured in the PerkinElmer Envision HTS Multilabel Reader. The raw data are imported into and analyzed with the Boehringer Ingelheim proprietary software MegaLab (curve fitting based on the program PRISM, GraphPad Inc.).

[1] = system: NCI-H358 cells (NSCLC, G12C); assay: NCI-H358 CTG proliferation assay (120 h), assay 2; format: cell-based; details: Homo sapiens, CellTiter-Glo, 384-well, 200 cells per well
Procedure: NCI-1H358 cells (ATCC No. CRL-5807) are dispensed into white bottom opaque 96 well plates (Perkin Elmer cat no. 5680) at a density of 2000 cells per well in 100 μL RPM 1-1640 ATCC-Formulation (Gibco #A10491)+10% FCS (fetal calf serum) (assay 1) or into black 384-well plates, flat and clear bottom (Greiner, PNr. 781091) at a density of 200 cells per well in 60 μl RPMI-1640 ATCC-Formulation (Gibco #A10491)+10% FCS (fetal calf serum) (assay 2). […] Compounds (10 mM stock in DMSO) are added at logarithmic dose series using the HP Digital Dispenser D300 (Tecan) (assay 1) or the ECHO acoustic liquid handler system (Beckman Coulter) (assay 2), normalizing for added DMSO and including DMSO controls. For the TO time point measurement, untreated cells are analyzed at the time of compound addition. Plates are incubated for 120 h, and cell viability is measured using CellTiter-Glo luminescent cell viability reagent (Promega product code G7570). Viability (stated as percent of control) is defined as relative luminescence units RLU of each well divided by the RLU of cells in DMSO controls. IC50 values are determined from viability measurements by non-linear regression using a four-parameter model.

CYP3A4 = target: T1, CYP3A4 (Homo sapiens, UniProt P08684); assay: Mechanism based inhibition of CYP3A4 assay (MBI 3A4); format: in vitro ADME; details: 25 uM, hydroxy-midazolam formation after 30 min preincubation relative to 0 min, human liver microsomes
T1 construct: assayed in human liver microsomes (0.02 mg/mL) with midazolam (15 μM) as a substrate; from tissue; host or cells: human liver microsomes
T1 sequence (P08684 whole entry): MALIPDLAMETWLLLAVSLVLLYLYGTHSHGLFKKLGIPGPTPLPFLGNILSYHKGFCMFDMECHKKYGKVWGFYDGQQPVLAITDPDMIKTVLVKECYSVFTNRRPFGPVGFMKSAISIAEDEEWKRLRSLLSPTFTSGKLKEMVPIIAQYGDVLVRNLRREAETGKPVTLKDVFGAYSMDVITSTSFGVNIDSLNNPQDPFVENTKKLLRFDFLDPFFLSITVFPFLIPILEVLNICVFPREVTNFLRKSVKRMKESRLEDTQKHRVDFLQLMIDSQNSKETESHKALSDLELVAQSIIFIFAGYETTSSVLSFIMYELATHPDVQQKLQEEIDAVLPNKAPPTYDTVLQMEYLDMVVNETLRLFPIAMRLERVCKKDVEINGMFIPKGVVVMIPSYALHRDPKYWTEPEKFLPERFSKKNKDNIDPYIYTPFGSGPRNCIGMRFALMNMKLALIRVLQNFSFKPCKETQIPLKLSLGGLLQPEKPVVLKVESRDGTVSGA
Procedure: After preincubation, the incubate is diluted 1:10 and the substrate midazolam is added for the main incubation (15 min). The main incubation is quenched with acetonitrile and the formation of hydroxy-midazolam is quantified via LC/MS-MS. The formation of hydroxy-midazolam from the 30 min preincubation relative to the formation from the 0 min preincubation is used as a readout. Values of less than 100% mean that the substrate midazolam is metabolized to a lower extent upon 30 min preincubation compared to 0 min preincubation. In general low effects upon 30 min preincubation are desired (corresponding to values close to 100%/not different to the values determined with water control).

KRAS (G12D)::SOS1 = target: T2, KRAS (G12D)::SOS1 (Homo sapiens, UniProt P01116, G12D); assay: KRAS::SOS1 AlphaScreen binding assay, KRAS G12D
T2 construct: KRAS (G12D) 1-169, N-terminal 6His-tag, C-terminal avi-tag; 6His-tag (N); purchased Xtal BioStructures, Inc. (KRAS G12D); Viva Biotech Ltd (SOS1)
T2 sequence (P01116 1-169 isoform P01116-2 G12D): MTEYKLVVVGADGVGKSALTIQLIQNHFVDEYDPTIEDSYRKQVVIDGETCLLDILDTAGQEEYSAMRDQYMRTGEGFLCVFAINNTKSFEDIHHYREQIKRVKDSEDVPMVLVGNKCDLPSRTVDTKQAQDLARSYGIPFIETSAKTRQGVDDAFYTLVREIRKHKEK
Procedure: (§2) Low IC50 values in this assay setting are indicative of strong inhibition of protein-protein interaction between SOS1 and KRAS:
(§3) These assays measure the inhibitory effect of compounds on KRAS mutant protein-protein interactions using the Alpha Screen technology by Perkin Elmer.
(§4) For the chosen highest assay concentration of 100 μM, 150 nL of compound solution are transferred from a 10 mM DMSO compound stock solution. A series of eleven fivefold dilutions per compound are transferred to the assay plate, compound dilutions are tested in duplicates. DMSO are added as backfill to a total volume of 150 nL.
(§5) The assays run on a fully automated robotic system in a darkened room below 100 Lux. To 150 nl of compound dilution 10 μl of a mix including KRAS mutant protein, SOS1 (final assay concentrations see above) and GDP nucleotide (Sigma G7127; final assay concentration 10 μM) in assay buffer (1×PBS, 0.1% BSA, 0.05% Tween 20) are added into columns 1-24. After 30 minutes incubation time 5 μl of Alpha Screen bead mix in assay buffer are added into columns 1-23.
(§6) Plates are kept at room temperature in a darkened incubator. After an additional 60 minutes incubation time the signal is measured in a PerkinElmer Envision HTS Multilabel Reader using the AlphaScreen specs from PerkinElmer.
(§7) IC50 values are calculated and analyzed with Boehringer Ingelheim's MEGALAB IC50 application using a 4 parametric logistic model.

KRAS G12C Ba/F3 cells = KRAS G12C Ba/F3 cells (Homo sapiens, UniProt P01116, G12C, cells depend on it); assay: Ba/F3 proliferation assay, KRAS G12C; format: cell-based; details: 72 h, AlamarBlue; read-out: KRAS G12C Ba/F3 IC50
KRAS G12C Ba/F3 cells, sequence (P01116 whole entry G12C): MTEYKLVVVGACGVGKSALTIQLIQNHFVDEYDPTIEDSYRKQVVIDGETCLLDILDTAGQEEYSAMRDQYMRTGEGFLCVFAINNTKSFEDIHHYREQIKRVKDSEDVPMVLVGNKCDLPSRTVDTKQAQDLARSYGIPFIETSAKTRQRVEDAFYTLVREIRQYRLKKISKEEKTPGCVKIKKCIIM
Procedure: as §1

KRAS (G12C)::SOS1 = target: T3, KRAS (G12C)::SOS1 (Homo sapiens, UniProt P01116, C118S/C51S/C80L/G12C); assay: KRAS::SOS1 AlphaScreen binding assay, KRAS G12C
T3 construct: KRAS (G12C) 1-169, N-terminal 6His-tag for purification, cleaved off; 6His-tag (N, cleaved yes)
T3 sequence (P01116 1-169 isoform P01116-2 G12C/C51S/C80L/C118S): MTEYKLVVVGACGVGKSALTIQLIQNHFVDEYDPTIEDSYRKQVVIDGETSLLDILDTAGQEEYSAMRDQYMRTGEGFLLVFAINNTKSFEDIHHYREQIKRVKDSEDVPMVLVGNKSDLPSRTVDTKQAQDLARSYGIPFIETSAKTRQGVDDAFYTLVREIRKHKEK
Procedure: as §2, §3, §4, §5, §6, §7

[2] = Solubility measurement (DMSO solution precipitation method); format: physicochemical; details: aqueous buffer, kinetic from dmso stock, ambient temperature
Procedure: The DMSO solution is diluted with an aqueous medium (McIlvaine buffer with pH=4.5 or 6.8) to a final concentration of 250 μM. After 24 h of shaking at ambient temperature a potentially formed precipitate is removed by filtration. The concentration of the test compound in the filtrate is determined by LC-UV methods by calibrating the signal to the signal of a reference solution with complete dissolution of the test compound in acetonitrile/water (1:1) with known concentration.

Caco-2 assay = format: in vitro ADME; details: human; for Papp A→B at 90 min, 10 μM: Caco-2, apical to basolateral, pH 7.4, read-out: Caco PappAB; for efflux ratio at 90 min, 10 μM: Caco-2, pH 7.4, efflux ratio PappBA/PappAB, read-out: Caco ER
Source text: The assay provides information on the potential of a compound to pass the cell membrane, on the extent of oral absorption as well as on whether the compound is actively transported by uptake and/or efflux transporters. Permeability measurements across polarized, confluent Caco-2 cell monolayers grown on permeable filter supports (Corning, catalog #3391) are used. […] The receiver and donor compartments contain 0.25% bovine serum albumine (BSA) in assay buffer. Passive diffusion and/or active transport of compounds across the monolayer is measured in both apical to basolateral (a-b) and basolateral to apical (b-a) direction. a-b permeability (PappAB) represents drug absorption from the intestine into the blood and b-a permeability (PappBA) drug secretion from the blood back into the intestine via both passive permeability as well as active transport mechanisms mediated by efflux and uptake transporters that are expressed on the Caco-2 cells. After a pre-incubation of 25-30 min at 37° C., at predefined time points (0, 30, 60 and 90 min), samples were taken from the receiver and donor compartment, respectively. Concentrations of test compounds in samples were measured by HPLC/MS/MS, samples from the donor compartment were diluted 1:50 (v:v) with assay buffer, samples from receiver compartment were measured without dilution.
Apparent permeabilities in a-b (PappAB) and b-a (PappBA) directions are calculated according to the formula:
[formula] • Vrec [mL]: buffer volume in receiver compartment • Cdon [μmol/mL]: concentration of test compound in donor compartment at t=0 • ΔCrec: difference between concentrations of test compound in receiver compartment at start and end of incubation time • Δt: Incubation time • Vrec·ΔCrec/Δt [μmol/min]: Amount of compound transferred to receiver compartment per time • A [cm^2]: filter surface
Caco-2 efflux ratios (ER) are calculated as the ratio of PappBA/PappAB.

[3] = McIlvaine buffer pH 4.5, 24 h, read-out: solubility pH 4.5
[4] = McIlvaine buffer pH 6.8, 24 h, read-out: solubility pH 6.8

KRAS G12D Ba/F3 cells, sequence (P01116 whole entry G12D, canonical isoform): as the sequence (P01116 whole entry G12C) above, with C12D counted along it

Row | GI50 (KRAS G12D Ba/F3 cells) | IC50 [1] | MBI 3A4 (CYP3A4) | IC50 (KRAS (G12D)::SOS1) | GI50 (KRAS G12C Ba/F3 cells) | IC50 (KRAS (G12C)::SOS1) | solubility at 24 h [2, 3] | solubility at 24 h [2, 4] | Papp A→B at 90 min, 10 μM (Caco-2 assay) | efflux ratio at 90 min, 10 μM (Caco-2 assay) | Structure (SMILES)
1 | 24 nM | 1440 nM | 54% | 2 nM | 51 nM | 3 nM | > 110 µg/mL | > 110 µg/mL | 26 ×10⁻⁶ cm/s | 1.3 | C[C@H](Oc1nccc(-c2onc3c2CCC[C@@]32CCCc3sc(N)c(C#N)c32)n1)[C@@H]1CCCN1C [Ib-1]
2 | 13 nM | 402 nM | 52% | 2 nM | 19 nM | 4 nM | > 110 µg/mL | > 110 µg/mL | 21 ×10⁻⁶ cm/s | 1.3 | C[C@H](Oc1nccc(-c2noc3c2CCC[C@@]32CCCc3sc(N)c(C#N)c32)n1)[C@@H]1CCCN1C [IIb-6]
